In US9512111B2, “N-sulfonylated tetrahydroquinolines and related bicyclic compounds for inhibition of RORγ activity and the treatment of disease” (Lycera Corporation, priority 2010, dated 2016):

Columns and labels:
[1] = molecular target: T1, RORγ-LBD (Homo sapiens, UniProt P51449); experiment: RORγ-Ligand Binding Domain TR-FRET Assay; format: biochemical; settings: benzoxazines, Table 9
T1 construct: HIS-tagged RORγ-LBD was recombinantly expressed in SF9 cells; made in house; host or cells: SF9 cells (baculovirus); unpurified lysate
T1 sequence (P51449 269-508 limits assumed): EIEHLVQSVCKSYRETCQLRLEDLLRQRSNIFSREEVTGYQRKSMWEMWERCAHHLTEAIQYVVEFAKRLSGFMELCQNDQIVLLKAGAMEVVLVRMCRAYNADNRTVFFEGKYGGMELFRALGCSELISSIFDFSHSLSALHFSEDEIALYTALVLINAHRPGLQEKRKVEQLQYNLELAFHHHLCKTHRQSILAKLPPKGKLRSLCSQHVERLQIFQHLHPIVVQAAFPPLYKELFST
How it was run: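 Unpurified His-tagged LBD in Sf9 lysate (~10 nM final) in 25 mM HEPES pH 7.0, 100 mM NaCl, 0.01% Tween, 0.1% BSA, with biotinylated SRC1-2 LXXLL peptide (450 nM), Eu anti-His (2 nM) and streptavidin-APC (60 nM). Incubated 4 h to overnight; IC50 from 665/615 nm TR-FRET ratio.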

[2] = molecular target: T2, RORγt (Homo sapiens, UniProt P51449); experiment: RORγ Reporter Assay (GAL4-UAS luciferase reporter in HEK293 cells); format: cell-based; settings: benzoxazines, Table 9; HEK cells
T2 construct: The resulting GAL4-RORγt-LBD fusion construct was placed under the control of a constitutive cytomegalovirus (CMV) promoter; expressed in transfected cells; host or cells: HEK293
T2 sequence (P51449 269-508 limits assumed): T1 sequence (P51449 269-508 limits assumed)
Protocol: Inhibition of RORγt in cells was determined using a GAL4-UAS reporter system in HEK293 cells employing a luciferase readout. The RORγt DNA binding domain (DBD) was replaced with the heterologous yeast GAL4 DBD using standard recombinant DNA methods. The resulting GAL4-RORγt-LBD fusion construct was placed under the control of a constitutive cytomegalovirus (CMV) promoter by cloning it into the CMV-driven mammalian expression vector pcDNA3.1+− (Promega Corporation, Madison, Wis.).
A transcriptional reporter expression construct was used to monitor GAL4-RORγ activity, which contained five copies of the GAL4 binding site enhancer (UAS) controlling expression of a firefly luciferase reporter. This construct, pGL4.31, is commercially available from Promega Corporation, Madison Wis. Both expression constructs were transfected in bulk into HEK-293 cells using standard lipid-based transfection techniques, which allowed the GAL4 RORγ-LBD fusion protein to drive expression of the luciferase reporter. Control transfections were performed with an empty pCDN3.1+ vector.
The next day, cells were plated into 384 well plates, test compound was added, and the plates were incubated overnight. […] Promega firefly assays kits were used to stabilize the luciferase signal, and the intensity of the luciferase signal was measured using an EnVision Multilabel Plate Reader (Perkin Elmer, Waltham, Mass.).
HEK 293 cells are transfected with GAL4-NR construct (CMV:NR-LBD in pcDNA3.1neo) and the pGL4.31 GAL4-luciferase reporter construct (Promega). For a background control, use empty pcDNA3.1neo and pGL4.31. Transfection protocol is for a single T75 flask performed with Minis Trans-It 293 reagent. A 60 μL aliquot of Trans-IT reagent at room temperature is added drop wise to 1.5 mL of Optimem (Invitrogen). The resulting solution is mixed by inversion and incubated for 5-20 minutes at room temperature. This reagent mixture is added to 10 μg of DNA (5 μg of each expression vector used at a concentration of 1 mg/mL). The solution is mixed by inversion and incubated at room temperature for 20 minutes.
While the Trans-IT reagent and DNA are incubating, harvest HEK-293 cells. Remove media from flasks via aspiration and add enough TrypLE Express (stable Trypsin-like reagent, Invitrogen) to cover the bottom of the flask. The mixture is incubated at room temperature until the cells are visibly loose in the flask (approximately 2-5 minutes). Add an equal volume of complete growth media, and then pipette to achieve a single cell suspension. Spin down 1×10^7 cells and re-suspend the cells in 10 mL of complete growth media (DMEM high glucose/10% dialyzed FBS/pen/strep; Invitrogen). The cells and transfection mixture are added to one T75 flask. The contents of the T75 flax are mixed and incubated overnight at 37° C. and 5% CO2.
After 16-24 hours, cells are harvested and plated for test compound screening. Cells may be harvested as described above. Next, cells are counted and an appropriate number of cells are spun down. Then, cells are aspirated and re-suspended in complete growth media at a concentration of 0.5×10^6 cells/mL to provide a cell suspension. Plate 20 μL of the cell suspension into a white, tissue-culture treated 384 well plate. (10,000 cells/well).
A 10 mM stock solution of test compound in dimethylsulfoxide (DMSO) was diluted to 500× the final test concentration in DMSO, then diluted to 5× the final test concentration with complete growth medium to provide the Test Compound Solution. The concentration of DMSO in the Test Compound Solution was […]. A 5 μL aliquot of Test Compound Solution was added to each test well in the 384 well plate previously plated with the cell suspension. Next, plates are spun briefly and incubated overnight at 37° C. and 5% CO2.
After 16-24 hours, the luciferase assay is performed. Plates and luciferase reagent (e.g. One-Glo® or Dual Glo®; Promega, Madison, Wis.) are brought to room temperature.

IC50 [1]	IC50 [2]	SMILES
< 15 µM	< 15 µM	CC(C)OCC1CN(S(=O)(=O)c2ccc(F)cc2)c2cc(NC(=O)c3c(F)cccc3F)ccc2O1 (stereo not shown) [VI-115]
< 15 µM	< 15 µM	CCOCC1CN(S(=O)(=O)c2cccc(C#N)c2)c2cc(NC(=O)c3c(F)cccc3Cl)ccc2O1 (stereo not shown) [VI-100]
< 15 µM	< 15 µM	COCC1CN(S(=O)(=O)c2ccc(F)c(F)c2)c2cc(NC(=O)c3c(Cl)cccc3Cl)ccc2O1 (stereo not shown) [VI-70]
< 15 µM	< 15 µM	N#Cc1cccc(S(=O)(=O)N2C[C@H](CO)Oc3ccc(NC(=O)c4c(F)cccc4C(F)(F)F)cc32)c1 [VI-62]
< 15 µM	< 15 µM	O=C(Nc1ccc2c(c1)N(S(=O)(=O)c1ccc(F)cc1)C[C@@H](CO)O2)c1c(F)cccc1Cl [VI-116]
< 15 µM	< 15 µM	COCC1CN(S(=O)(=O)c2ccc(F)c(F)c2)c2cc(NC(=O)Cc3ccc(F)cc3)ccc2O1 (stereo not shown) [VI-78]
< 15 µM	< 15 µM	CCOCC1CN(S(=O)(=O)c2ccc(F)cc2)c2cc(NC(=O)c3c(Cl)cccc3C(F)(F)F)ccc2O1 (stereo not shown) [Compound 15, 2-Chloro-N-[2-ethoxymethyl-4-(4-fluoro-benzenesulfonyl)-3,4-dihydro-2H-benzo[1,4]oxazin-6-yl]-6-trifluoromethyl-benzamide]
< 15 µM	< 15 µM	O=C(Nc1ccc2c(c1)N(S(=O)(=O)c1ccc(F)c(F)c1)C[C@@H](CO)O2)c1c(Cl)cccc1Cl [VI-73]
< 15 µM	< 15 µM	COc1ccc(S(=O)(=O)N2C[C@H](CO)Oc3ccc(NC(=O)c4c(Cl)cccc4Cl)cc32)cn1 [VI-26]
< 15 µM	< 15 µM	O=C(Nc1ccc2c(c1)N(S(=O)(=O)c1ccc(F)cc1)CC(CC(F)(F)F)O2)c1c(F)cccc1C(F)(F)F (stereo not shown) [VI-14]
< 15 µM	< 15 µM	O=C(Nc1ccc2c(c1)N(S(=O)(=O)c1ccc(F)cc1)CC(C(F)(F)F)O2)c1c(Cl)cccc1Cl (stereo not shown) [VI-107]
< 15 µM	< 15 µM	CCOCC1CN(S(=O)(=O)c2ccc(F)c(F)c2)c2cc(NC(=O)c3c(F)cccc3Cl)ccc2O1 (stereo not shown) [VI-89]
< 15 µM	< 15 µM	C[C@H]1CN(S(=O)(=O)c2ccc(F)cc2)c2cc(NC(=O)c3c(F)cccc3Cl)ccc2O1 [VI-1]
< 15 µM	< 15 µM	CC(=O)NCC1CN(S(=O)(=O)c2ccc(F)cc2)c2cc(NC(=O)c3c(F)cccc3Cl)ccc2O1 (stereo not shown) [VI-39]
< 15 µM	< 15 µM	O=C(Nc1ccc2c(c1)N(S(=O)(=O)c1ccc(Cl)cc1)C[C@H](CO)O2)c1c(F)cccc1C(F)(F)F [VI-67]
< 15 µM	< 15 µM	O=C(Nc1ccc2c(c1)N(S(=O)(=O)c1ccc(F)cc1)C[C@H](CF)O2)c1c(F)cccc1Cl [Compound 22, (R)-2-Chloro-6-fluoro-N-(2-(fluoromethyl)-4-((4-fluorophenyl)sulfonyl)-3,4-dihydro-2H-benzo[b][1,4]oxazin-6-yl)benzamide]
< 15 µM	< 15 µM	O=C(Nc1ccc2c(c1)N(S(=O)(=O)c1ccc(F)c(F)c1)C[C@H](CO)O2)c1c(F)cccc1Cl [VI-42]
< 15 µM	< 15 µM	Cc1nn(C(F)F)cc1S(=O)(=O)N1C[C@H](C)Oc2ccc(NC(=O)c3c(Cl)cccc3Cl)cc21 [VI-9]
< 15 µM	< 15 µM	O=C(Nc1ccc2c(c1)N(S(=O)(=O)c1ccc(F)cc1)C[C@H](CO)O2)c1c(Cl)cccc1Cl [VI-83]
< 15 µM	< 15 µM	COCC1CN(S(=O)(=O)c2ccc(Cl)cc2)c2cc(NC(=O)c3c(Cl)cccc3Cl)ccc2O1 (stereo not shown) [VI-95]
< 15 µM	< 15 µM	O=C(Nc1ccc2c(c1)N(S(=O)(=O)c1ccc(F)cc1)CC(CC(F)(F)F)O2)c1c(Cl)cccc1C(F)(F)F (stereo not shown) [VI-15]
< 15 µM	< 15 µM	Cc1cccc(Cl)c1C(=O)Nc1ccc2c(c1)N(S(=O)(=O)c1ccc(F)cc1)C[C@H](CO)O2 [VI-48]
< 15 µM	< 15 µM	Cc1cccc(C)c1C(=O)Nc1ccc2c(c1)N(S(=O)(=O)c1ccc(F)cc1)C[C@H](CO)O2 [VI-49]
